Results published in ChEMBL document CHEMBL1132159, “[3H]Azidodantrolene: synthesis and use in identification of a putative skeletal muscle dantrolene binding site in sarcoplasmic reticulum” (J Med Chem, 1999).

Legend:
[1] = The compound was tested for binding affinity against porcine sarcoplasmic reticulum(SR) membrane
[2] = The compound was tested for binding affinity in a buffer containing 500 uM-3 mM beta,gamma-methyleneadenosine 5'-triphosphate(AMP-PCP) in porcine sarcoplasmic reticulum
[3] = The compound was tested for binding affinity in the absence of beta, gamma- methyleneadenosine 5'-triphosphate(AMP-PCP) in porcine sarcoplasmic reticulum
[4] = The compound was tested for binding affinity against porcine sarcoplasmic reticulum(SR) membrane in the absence or presence of azumolene
[5] = The compound was tested for binding affinity against porcine sarcoplasmic reticulum(SR) membrane in the absence or presence of atropine
[6] = The compound was tested for binding affinity against porcine sarcoplasmic reticulum(SR) membrane in the absence or presence of dantrolene from porcine sarcoplasmic reticulum
[7] = The compound was tested for binding affinity against porcine sarcoplasmic reticulum
[8] = Binding affinity against porcine sarcoplasmic reticulum

Structure (SMILES): [3H]/C(=N\N1CC(=O)[N-]C1=O)c1ccc(-c2ccc([N+](=O)[O-])cc2)o1.[Na+]
- Ki [1]: 1500 nM
- Kd [2]: 210 nM
- Kd [3]: 275 nM

Structure (SMILES): [3H]/C(=N\N1CC(=O)[N-]C1=O)c1ccc(-c2ccc(N=[N+]=[N-])cc2)o1.[Na+] [[3H]-AZIDODANTROLINE]
- Ki [4]: 100000 nM
- Ki [5]: 100000 nM
- Ki [6]: 20000 nM
- Ki [7]: 175 nM

Structure (SMILES): O=C1CN(/N=C/c2ccc(-c3ccc([N+](=O)[O-])cc3)o2)C(=O)N1 [DANTROLENE SODIUM]
- Kd [8]: 300 nM
